Reference: ChEMBL document CHEMBL1938259, “Novel substituted pyrimidines as HCV replication (replicase) inhibitors” (Bioorg Med Chem Lett, 2012)

Legend:
Rattus norvegicus = experiment: AUC (0 to 24 hrs) in rat at 10 mg/kg, po and 2 mg/kg, iv; type: ADME, organism-based, Plasma; conditions: in vivo
Canis familiaris = experiment: AUC (0 to 24 hrs) in dog at 2 mg/kg, po; type: ADME, organism-based, Canis lupus familiaris, Plasma; set-up: time < 24 hr, dose 2 mg/kg, route oral; conditions: in vivo

Nc1nc(Cl)c(C#Cc2nccs2)c(N[C@@H]2C[C@H](CO)[C@@H](O)[C@H]2O)n1 showed an AUC (Rattus norvegicus) of 0.6 µM·h.
Work on Nc1nc(Cl)c(C#Cc2ccsc2)c(N[C@@H]2C[C@H](CO)[C@@H](O)[C@H]2O)n1 yielded an AUC (Rattus norvegicus) of 1.6 µM·h and an AUC (Canis familiaris) of 2.2 µM·h.
